Assay results reported in ChEMBL document CHEMBL5370603, “N-(2-Aminophenyl)-benzamide Inhibitors of Class I HDAC Enzymes with Antiproliferative and Antifibrotic Activity” (J Med Chem, 2023).
pIC50: −log10 of the molar value. Active and inactive are the calls of the source. The calls are words filed in the database; no cut-off is given here.

Experiments:
[1] = test system: Mus musculus; assay: Anti-fibrotic activity against BLM-induced pulmonary fibrosis C57BL/6 mouse model assessed as reduction in soluble collagen protein level in BALF at 30 mg/kg, ip bid for 15 days starting from 1 day before BLM challenge by Direct Red assay; assay type: functional, organism-based; details: time 15.0 day
[2] = target: T1, Protein deacetylase HDAC6 (Homo sapiens, UniProt Q9UBN7); assay: Inhibition of C-terminal FLAG-tagged human recombinant full length HDAC6 expressed in baculovirus expression system using Boc-Lys(Ac)-AMC as substrate preincubated with enzyme for 15 mins followed by substrate addition and measured after 60 mins by fluorescence based analysis
T1 sequence (Q9UBN7 whole entry): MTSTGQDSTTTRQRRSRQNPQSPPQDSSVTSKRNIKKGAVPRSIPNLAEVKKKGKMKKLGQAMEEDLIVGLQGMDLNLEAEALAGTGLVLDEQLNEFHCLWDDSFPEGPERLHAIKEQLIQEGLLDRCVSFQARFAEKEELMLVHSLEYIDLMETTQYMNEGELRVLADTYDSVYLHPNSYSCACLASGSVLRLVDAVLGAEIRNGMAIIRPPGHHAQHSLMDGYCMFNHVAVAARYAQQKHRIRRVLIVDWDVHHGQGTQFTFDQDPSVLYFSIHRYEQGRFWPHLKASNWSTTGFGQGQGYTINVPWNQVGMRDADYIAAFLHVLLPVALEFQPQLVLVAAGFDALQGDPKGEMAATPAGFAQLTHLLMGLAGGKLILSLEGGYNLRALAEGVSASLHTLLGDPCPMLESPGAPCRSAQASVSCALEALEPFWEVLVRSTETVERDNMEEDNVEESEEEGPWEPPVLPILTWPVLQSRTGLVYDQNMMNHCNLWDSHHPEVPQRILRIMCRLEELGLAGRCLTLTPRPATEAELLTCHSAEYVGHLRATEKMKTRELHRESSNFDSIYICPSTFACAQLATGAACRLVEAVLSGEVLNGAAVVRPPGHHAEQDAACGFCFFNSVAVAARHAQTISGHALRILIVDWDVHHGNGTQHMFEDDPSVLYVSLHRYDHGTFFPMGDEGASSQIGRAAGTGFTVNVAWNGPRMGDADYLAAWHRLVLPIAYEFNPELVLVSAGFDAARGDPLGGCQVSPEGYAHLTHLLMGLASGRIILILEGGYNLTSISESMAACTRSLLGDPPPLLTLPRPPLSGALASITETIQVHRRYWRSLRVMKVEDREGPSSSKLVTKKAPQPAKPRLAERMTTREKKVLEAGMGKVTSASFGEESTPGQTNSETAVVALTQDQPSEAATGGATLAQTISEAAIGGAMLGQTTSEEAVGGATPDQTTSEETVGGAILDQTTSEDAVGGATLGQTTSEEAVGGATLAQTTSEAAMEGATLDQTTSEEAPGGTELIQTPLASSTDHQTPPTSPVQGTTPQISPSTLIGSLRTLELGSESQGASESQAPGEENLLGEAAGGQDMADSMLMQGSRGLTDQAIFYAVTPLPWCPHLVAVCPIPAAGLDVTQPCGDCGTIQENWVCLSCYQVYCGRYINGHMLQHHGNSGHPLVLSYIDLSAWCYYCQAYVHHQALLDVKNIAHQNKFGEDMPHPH

[3] = test system: Mus musculus; assay: Anti-fibrotic activity against BLM-induced pulmonary fibrosis C57BL/6 mouse model assessed as reduction in collagen deposition in lungs at 30 mg/kg, ip bid for 15 days starting from 1 day before BLM challenge by Sirius Red staining based analysis; assay type: functional, organism-based; details: time 15.0 day
[4] = test system: SF-268; assay: Antiproliferative activity against human SF-268 cells assessed as inhibition of cell growth incubated for 72 hrs by MTT assay; assay type: functional, cell-based; details: SF-268, 72 h
[5] = test system: Mus musculus; assay: Anti-fibrotic activity against BLM-induced pulmonary fibrosis C57BL/6 mouse model assessed as reduction in Col1a1 gene expression in lungs at 30 mg/kg, ip bid for 15 days starting from 1 day before BLM challenge by qRT-PCR analysis; assay type: functional, organism-based; details: time 15.0 day
[6] = target: T2, Protein deacetylase HDAC6 (Homo sapiens) (UniProt Q9UBN7); assay: Inhibition of HDAC6 in human A549 cells assessed as increase in acetylated alpha-tubulin level at 5 uM incubated for 48 hrs by immunoblot analysis; assay type: cell-based
T2 sequence (whole entry): T1 sequence (Q9UBN7 whole entry)

[7] = target: T3, Class 1 histone deacetylase (Homo sapiens) (UniProt Q13547+O15379+Q92769+Q9BY41); assay: Inhibition of class I HDAC in human A549 cells assessed as increase in histone H3 acetylation at 5 uM incubated for 48 hrs by immunoblot analysis; assay type: cell-based
[8] = target: T4, Histone deacetylase 1 (Homo sapiens, UniProt Q13547); assay: Inhibition of human recombinant HDAC1 using Ac-Leu-Gly-Lys(Ac)-AMC as substrate preincubated with enzyme for 30 mins followed by substrate addition and measured after 90 mins by fluorescence based analysis
[9] = test system: Fibroblast; assay: Anti-fibrotic activity in human primary lung fibroblast assessed as inhibition of TGFbeta1-induced COL1A1 mRNA expression at 5 to 10 uM pretreated for 1 hr followed by TGFbeta1 stimulation and measured after 24 hrs by qRT-PCR analysis; assay type: functional, cell-based; details: dose 5-10 µM, time 25.0 hrs
[10] = target: Histone deacetylase 3 (Homo sapiens, UniProt O15379); assay: Inhibition of human recombinant HDAC3 using Ac-Leu-Gly-Lys(Ac)-AMC as substrate preincubated with enzyme for 30 mins followed by substrate addition and measured after 90 mins by fluorescence based analysis
[11] = target: T5, Histone deacetylase 8 (Homo sapiens, UniProt Q9BY41); assay: Inhibition of C-terminal His-tagged human recombinant full length HDAC8 (1 to 377 residues) expressed in Sf9 cells using Ac-Leu-Gly-Lys(trifluoroAc)-AMC as substrate preincubated with enzyme for 30 mins followed by substrate addition and measured after 90 mins by fluorescence based analysis
T5 sequence (Q9BY41 whole entry): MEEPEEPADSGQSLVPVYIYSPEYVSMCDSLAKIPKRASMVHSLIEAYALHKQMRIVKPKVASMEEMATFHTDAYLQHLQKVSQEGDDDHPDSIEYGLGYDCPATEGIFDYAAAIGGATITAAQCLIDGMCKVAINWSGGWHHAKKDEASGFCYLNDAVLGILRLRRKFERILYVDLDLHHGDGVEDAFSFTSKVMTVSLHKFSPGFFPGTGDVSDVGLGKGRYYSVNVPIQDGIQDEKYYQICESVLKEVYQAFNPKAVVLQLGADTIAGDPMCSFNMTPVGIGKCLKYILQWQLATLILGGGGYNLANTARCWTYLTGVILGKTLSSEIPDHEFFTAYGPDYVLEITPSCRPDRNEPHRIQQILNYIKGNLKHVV

[12] = test system: A549; assay: Antiproliferative activity against human A549 cells assessed as inhibition of cell growth incubated for 72 hrs by MTT assay; assay type: functional, cell-based; details: A549, 72 h
[13] = test system: Mus musculus; assay: Anti-fibrotic activity against BLM-induced pulmonary fibrosis C57BL/6 mouse model assessed as reduction in fibrotic masses in lungs at 30 mg/kg, ip bid for 15 days starting from 1 day before BLM challenge by Hematoxylin-Eosin staining based analysis; assay type: functional, organism-based; details: time 15.0 day
[14] = test system: Mus musculus; assay: Anti-fibrotic activity against BLM-induced pulmonary fibrosis C57BL/6 mouse model assessed as reduction in pulmonary inflammation by measuring decrease in cell number infiltration in BALF at 30 mg/kg, ip bid for 15 days starting from 1 day before BLM challenge by hematocytometer analysis; assay type: functional, organism-based; details: time 15.0 day
[15] = test system: Mus musculus; assay: Anti-fibrotic activity against BLM-induced pulmonary fibrosis C57BL/6 mouse model assessed as reduction in pulmonary edema by measuring decrease in total protein concentration in BALF at 30 mg/kg, ip bid for 15 days starting from 1 day before BLM challenge by Bradford assay; assay type: functional, organism-based; details: time 15.0 day
[16] = Toxicity against human primary lung fibroblasts assessed as effect on cell viability upto 20 uM incubated for 72 hrs by MTT assay; assay type: cell-based; details: fibroblast
[17] = target: Histone deacetylase 4 (Homo sapiens, UniProt P56524); assay: Inhibition of N-terminal GST-tagged/C-terminal His tagged human recombinant HDAC4 (627 to 1084 residues) expressed in baculovirus-infected Sf9 cells using Ac-Leu-Gly-Lys(trifluoroAc)-AMC as substrate preincubated with enzyme for 15 mins followed by substrate addition and measured after 60 mins by fluorescence based analysis
[18] = target: T3, Class 1 histone deacetylase (Homo sapiens); assay: Inhibition of class I HDAC in human A549 cells assessed as downregulation of EGFR protein expression at 5 uM incubated for 48 hrs by western blot analysis; assay type: cell-based
[19] = target: T3, Class 1 histone deacetylase (Homo sapiens); assay: Inhibition of class I HDAC in human A549 cells assessed as downregulation of MYC gene expression at 5 uM incubated for 48 hrs by qRT-PCR analysis; assay type: cell-based
[20] = target: T3, Class 1 histone deacetylase (Homo sapiens); assay: Inhibition of class I HDAC in human A549 cells assessed as downregulation of ERBB2 gene expression at 5 uM incubated for 48 hrs by qRT-PCR analysis; assay type: cell-based
[21] = target: Histone deacetylase 2 (Homo sapiens, UniProt Q92769); assay: Inhibition of human recombinant HDAC2 using Ac-Leu-Gly-Lys(Ac)-AMC as substrate preincubated with enzyme for 30 mins followed by substrate addition and measured after 90 mins by fluorescence based analysis
[22] = target: T3, Class 1 histone deacetylase (Homo sapiens); assay: Inhibition of class I HDAC in human A549 cells assessed as downregulation of EGFR gene expression at 5 uM incubated for 48 hrs by qRT-PCR analysis; assay type: cell-based
[23] = test system: Caco-2; assay: Antiproliferative activity against human Caco-2 cells assessed as inhibition of cell growth incubated for 72 hrs by MTT assay; assay type: functional, cell-based; details: Caco-2, 72 h
[24] = target: T3, Class 1 histone deacetylase (Homo sapiens); assay: Inhibition of class I HDAC in human A549 cells assessed as downregulation of STAT3 gene expression at 5 uM incubated for 48 hrs by qRT-PCR analysis; assay type: cell-based
[25] = target: T4, Histone deacetylase 1; assay: Inhibition of human recombinant HDAC1 using Ac-Leu-Gly-Lys(Ac)-AMC as substrate preincubated with enzyme for 30 mins followed by substrate addition and measured after 90 mins by fluorescence based analysis relative to control; details: time 120.0 min

Chain of Histone deacetylase 4 (P56524 whole entry, the tested form may be a part): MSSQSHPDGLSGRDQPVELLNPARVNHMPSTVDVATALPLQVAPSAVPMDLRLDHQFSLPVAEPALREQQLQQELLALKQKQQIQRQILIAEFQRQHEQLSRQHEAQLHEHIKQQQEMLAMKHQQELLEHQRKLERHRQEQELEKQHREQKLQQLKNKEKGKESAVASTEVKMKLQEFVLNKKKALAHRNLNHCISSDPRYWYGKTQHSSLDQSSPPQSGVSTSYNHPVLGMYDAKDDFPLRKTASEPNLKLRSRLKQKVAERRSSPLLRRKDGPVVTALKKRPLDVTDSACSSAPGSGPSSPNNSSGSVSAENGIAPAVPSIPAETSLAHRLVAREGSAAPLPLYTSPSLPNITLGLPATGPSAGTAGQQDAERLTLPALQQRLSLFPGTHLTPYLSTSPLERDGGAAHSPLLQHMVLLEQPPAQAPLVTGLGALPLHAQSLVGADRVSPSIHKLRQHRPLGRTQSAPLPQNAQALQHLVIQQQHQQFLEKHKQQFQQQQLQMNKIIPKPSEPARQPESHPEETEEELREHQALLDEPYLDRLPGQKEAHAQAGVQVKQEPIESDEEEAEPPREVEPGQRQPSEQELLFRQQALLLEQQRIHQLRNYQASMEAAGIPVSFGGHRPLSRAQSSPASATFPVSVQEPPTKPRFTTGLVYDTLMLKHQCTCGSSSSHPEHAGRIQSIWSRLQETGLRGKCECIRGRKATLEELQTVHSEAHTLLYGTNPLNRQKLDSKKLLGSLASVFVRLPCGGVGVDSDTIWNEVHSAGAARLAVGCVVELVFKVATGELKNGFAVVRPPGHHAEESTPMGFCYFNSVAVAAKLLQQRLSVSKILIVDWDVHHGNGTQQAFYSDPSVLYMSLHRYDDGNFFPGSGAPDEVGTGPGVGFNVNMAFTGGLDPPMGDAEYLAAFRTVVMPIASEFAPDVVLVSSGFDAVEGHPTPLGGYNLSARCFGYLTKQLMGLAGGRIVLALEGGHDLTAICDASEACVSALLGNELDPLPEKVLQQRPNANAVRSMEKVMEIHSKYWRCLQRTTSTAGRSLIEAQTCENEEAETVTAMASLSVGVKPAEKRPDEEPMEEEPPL
Chain of Histone deacetylase 2 (Q92769 whole entry): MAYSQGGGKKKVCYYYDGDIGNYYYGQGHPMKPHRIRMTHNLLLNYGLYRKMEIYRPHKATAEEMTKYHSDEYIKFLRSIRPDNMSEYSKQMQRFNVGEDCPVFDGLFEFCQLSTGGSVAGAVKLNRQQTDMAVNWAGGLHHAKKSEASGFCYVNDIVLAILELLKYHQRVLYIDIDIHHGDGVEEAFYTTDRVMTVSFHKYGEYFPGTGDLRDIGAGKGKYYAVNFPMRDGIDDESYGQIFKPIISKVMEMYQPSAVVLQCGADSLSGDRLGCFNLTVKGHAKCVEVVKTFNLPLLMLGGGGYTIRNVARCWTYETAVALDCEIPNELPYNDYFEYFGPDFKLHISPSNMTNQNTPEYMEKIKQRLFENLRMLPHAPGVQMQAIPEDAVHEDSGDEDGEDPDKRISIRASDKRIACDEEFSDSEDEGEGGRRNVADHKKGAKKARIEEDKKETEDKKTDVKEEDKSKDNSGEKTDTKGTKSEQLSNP
Chain of Histone deacetylase 3 (O15379 whole entry, the tested form may be a part): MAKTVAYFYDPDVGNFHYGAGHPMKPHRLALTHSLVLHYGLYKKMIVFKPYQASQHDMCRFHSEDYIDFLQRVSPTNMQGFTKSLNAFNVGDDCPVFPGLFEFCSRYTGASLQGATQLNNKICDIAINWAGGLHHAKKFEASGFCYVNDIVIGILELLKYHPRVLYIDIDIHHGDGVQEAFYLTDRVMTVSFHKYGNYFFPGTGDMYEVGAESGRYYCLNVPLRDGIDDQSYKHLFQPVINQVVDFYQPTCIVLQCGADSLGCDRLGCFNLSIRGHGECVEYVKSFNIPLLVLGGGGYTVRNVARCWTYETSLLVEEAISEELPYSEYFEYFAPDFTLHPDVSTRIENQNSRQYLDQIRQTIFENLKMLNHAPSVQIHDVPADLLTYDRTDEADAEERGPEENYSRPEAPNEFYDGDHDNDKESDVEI
T4 sequence (Q13547 whole entry): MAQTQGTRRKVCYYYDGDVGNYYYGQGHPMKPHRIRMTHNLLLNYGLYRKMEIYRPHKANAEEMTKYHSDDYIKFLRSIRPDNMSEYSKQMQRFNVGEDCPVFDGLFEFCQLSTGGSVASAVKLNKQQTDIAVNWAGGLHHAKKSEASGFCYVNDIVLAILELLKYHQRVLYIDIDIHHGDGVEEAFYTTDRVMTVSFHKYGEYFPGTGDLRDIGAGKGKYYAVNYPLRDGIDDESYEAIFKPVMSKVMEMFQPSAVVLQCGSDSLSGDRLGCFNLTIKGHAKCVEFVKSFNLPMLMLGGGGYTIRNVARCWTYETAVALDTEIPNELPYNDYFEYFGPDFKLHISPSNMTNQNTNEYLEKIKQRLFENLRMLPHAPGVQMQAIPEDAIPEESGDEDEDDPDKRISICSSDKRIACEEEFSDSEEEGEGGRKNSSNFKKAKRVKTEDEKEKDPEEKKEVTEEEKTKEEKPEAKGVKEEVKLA

Row | Structure (SMILES) | pIC50 [2] | inhibition [6] | inhibition [7] | pIC50 [8] | pIC50 [10] | pIC50 [11] | pIC50 [12] | pIC50 [17] | inhibition [18] | pIC50 [21] | pIC50 [23] | Activity [1] | Activity [3] | pIC50 [4] | Activity [5] | Activity [9] | Activity [13] | Activity [14] | Activity [15] | Activity [16] | other results
1 | Nc1ccccc1NC(=O)c1ccc(COc2ccc(CNC(=O)[C@H]3CCC(=O)N3Cc3ccccc3)cc2)cc1 | < 4.00 | inactive | Active | 7.04 | 6.37 | < 5.00 | 5.41 | < 4.00 | Active | 6.84 | 5.72 | – | – | 5.47 | – | – | – | – | – | – | inhibition [19]: inactive; inhibition [20]: inactive; inhibition [22]: Active; inhibition [24]: inactive
2 | Nc1ccccc1NC(=O)c1ccc(COc2ccc(CNC(=O)[C@@H]3CCC(=O)N3Cc3ccccc3)cc2)cc1 | < 4.00 | – | – | 7.00 | 6.44 | < 5.00 | 5.17 | < 4.00 | – | 6.94 | 5.72 | Active | Active | 5.32 | Active | Active | Active | Active | Active | Non-Toxic | –
3 | Nc1ccccc1NC(=O)c1ccc(COc2ccc(CNC(=O)[C@@H]3CCCN3Cc3ccccc3)cc2)cc1 | < 4.00 | inactive | Active | 6.95 | 6.41 | < 5.00 | 5.43 | < 4.00 | Active | 6.72 | 5.72 | – | – | 5.47 | – | – | – | – | – | – | inhibition [19]: inactive; inhibition [20]: inactive; inhibition [22]: Active; inhibition [24]: inactive

Further lines, with some results ahead:

Row | pIC50 [2] | inhibition [6] | inhibition [7] | pIC50 [8] | pIC50 [10] | pIC50 [11] | pIC50 [12] | pIC50 [17] | inhibition [18] | pIC50 [21] | pIC50 [23] | Structure (SMILES) | Activity [1] | Activity [3] | pIC50 [4] | Activity [5] | Activity [9] | Activity [13] | Activity [14] | Activity [15] | Activity [16] | other results
4 | < 5.00 | inactive | Active | 6.59 | 6.86 | < 5.00 | 5.22 | < 4.00 | Active | – | – | Cl.Cl.Nc1ccccc1NC(=O)c1ccc(COc2ccc(CNC(=O)[C@H]3CCCN3)cc2)cc1 | Active | Active | 5.51 | Active | Active | Active | Active | Active | Non-Toxic | –
5 | < 5.00 | – | – | 6.37 | – | – | < 4.60 | – | – | – | – | Nc1ccccc1NC(=O)c1ccc(COc2ccc(NC(=O)[C@@H]3CCC(=O)N3Cc3ccccc3)cc2)cc1 | – | – | < 4.60 | – | – | – | – | – | – | inhibition [25]: 75%
6 | < 5.00 | – | – | 6.95 | – | – | < 4.60 | – | – | – | – | Nc1ccccc1NC(=O)c1ccc(COc2ccc(CNC(=O)C3CCCO3)cc2)cc1 (configuration not stated) | – | – | < 4.60 | – | – | – | – | – | – | inhibition [25]: 75%
